{"source": "patent US7691857B2", "about": "“Muscarinic agents as therapeutic compounds” (Muscagen Limited, priority 2003, dated 2010)", "biological_target": "M1 receptor (Oryctolagus cuniculus, UniProt G1SR55)", "sequence (G1SR55 1-460)": "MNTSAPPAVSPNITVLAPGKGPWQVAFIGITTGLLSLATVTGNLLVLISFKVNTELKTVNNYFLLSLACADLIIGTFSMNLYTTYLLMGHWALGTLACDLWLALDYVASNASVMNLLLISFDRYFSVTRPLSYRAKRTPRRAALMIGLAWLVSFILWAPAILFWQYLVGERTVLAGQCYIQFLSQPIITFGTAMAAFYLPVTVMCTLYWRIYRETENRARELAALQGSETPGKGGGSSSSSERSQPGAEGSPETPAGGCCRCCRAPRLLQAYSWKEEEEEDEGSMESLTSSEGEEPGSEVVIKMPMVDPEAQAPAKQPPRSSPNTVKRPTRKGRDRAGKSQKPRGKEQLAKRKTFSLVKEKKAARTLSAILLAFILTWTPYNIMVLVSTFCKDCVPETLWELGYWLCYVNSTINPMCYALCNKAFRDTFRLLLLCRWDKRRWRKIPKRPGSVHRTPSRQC", "test": "Functional assay of M1 receptor activity, electrically stimulated rabbit vas deferens preparation", "from_the_text": "M1 receptor activity of a compound of the invention may be examined with the rabbit vas deferens using a method developed from that described previously (Dorje F, Rettenmayr N, Mutschler E and Lambrecht G, Eur J Pharmacol 1991, 203, 417-420). The tissue is stimulated electrically to contract and the conditions are optimized so that M1 receptor agonists produce a concentration-related inhibition of contraction height. Any activity at M2 receptors is indicated by an increase in the contraction height. M2 receptor activity may also be recorded from increases in contraction of the guinea-pig paced left atria. M3 receptor activity is measured from the contraction of the guinea-pig ileum. […]\nInitial evaluation of the test compound is by assay of functional tissue responses. This has the advantage that it readily discriminates between agonist, partial agonist and antagonist activity. […]\nMale New Zealand white rabbits (1.47-3.4 Kg) are killed by a blow to the back of the head and vasa deferentia removed, dissected free of connective tissue and divided into prostatic and epididmyal portions. […] Isometric tension is recorded by computer at a sampling rate of 100 Hz, using Powerlab/200 (ADInstruments) software and MacLab bridge amplifiers. […]"}
{"smiles": "COCC1CNCC2(C3CCC3)C1OC(=O)N2Cc1ccccc1", "note": "(centres unmarked) [Example 1, 3-Benzyl-3a-cyclobutyl-7-methoxymethyl-2-oxo-octahydro-oxazolo[4,5-c]pyridin-5-ium]", "values": [{"measurement": "EC50", "setting": "M1 agonism, inhibition of twitch height in field-stimulated rabbit vas deferens, read-out: potency (EC50 value)", "result": 100, "unit": "nM"}, {"measurement": "partial M1 agonist (extent of agonism)", "setting": "rabbit vas deferens functional tissue response", "result": 50, "unit": "%"}]}
